# Test: GSK PKIS2: Screen against O. lienalis microfilariae, single point, at 3.1uM to assess reduction in motility. Compounds were also tested for cytotoxicity against Rhesus Monkey LLCMK2 cells.
# Type: functional, Onchocerca lienalis, LLC-MK2
# Details: CELL_LINE LLCMK2; CELL_SUPPLIER ECACC; CONC 3.1 uM; ORGANISM_SUPPLIER Extracted from peri-umbilical skin obtained from naturally infected cattle in the UK; temperature 37 degree C
row,Structure (SMILES),MOTILITY REDUCTION/CYTOTOXICITY
1,CNc1nccc(-c2c(-c3ccc(F)cc3)ncn2CCCN2CCOCC2)n1,0%
2,O=C(NCc1cccs1)c1cc(C(=O)c2c(Cl)cccc2Cl)c[nH]1,0%
3,Fc1ccc(-c2ncn(CCCN3CCOCC3)c2-c2ccccn2)cc1,13.4%
4,COc1cccc(C2=C(N(C)c3ccccc3)C(=O)NC2=O)c1,0%
5,O=C1NC(=O)C(N2CCc3ccccc32)=C1c1ccccc1Cl,20%
6,COc1ccc(C2=C(Nc3cccc(C(=O)O)c3)C(=O)NC2=O)cc1,20%
7,O=C1NC(=O)C(c2ccccc2Cl)=C1Nc1cccc(Cl)c1,0%
8,CSc1ccc(NC2=C(c3ccccc3Cl)C(=O)NC2=O)cc1,0%
9,O=C1NC(=O)C(c2ccc(Cl)cc2)=C1Nc1ccc(O)cc1,0%
10,COc1cccc(C2=C(Nc3cc(Cl)c(O)c(Cl)c3)C(=O)NC2=O)c1,0%
11,COc1ccc(C2=C(Nc3cccc(Cl)c3)C(=O)NC2=O)cc1,0%
12,COc1cccc(C2=C(Nc3ccc(SC)cc3)C(=O)NC2=O)c1,0%
13,COc1ccccc1C1=C(Nc2cccc(O)c2)C(=O)NC1=O,100%
14,O=C1NC(=O)C(c2ccccc2)=C1Nc1ccc(Cl)c(C(=O)O)c1,0%
15,COc1cccc(C2=C(Nc3cccc(O)c3)C(=O)NC2=O)c1,13.4%
16,CSc1ccc(NC2=C(c3cccc(Cl)c3)C(=O)NC2=O)cc1,0%
17,O=C1NC(=O)C(c2ccc(Cl)cc2)=C1Nc1cccc(Cl)c1,33.4%
18,Nc1nc(Nc2ccccc2)cc(-c2ccc3c(N)n[nH]c3c2)n1,0%
19,CS(=O)(=O)c1ccccc1-c1nc(-c2ccc(F)cc2)c(-c2ccncc2)[nH]1,33.4%
20,COCCNC(=O)c1ccc(-c2cc(C(=O)NC3CC3)cc(F)c2C)cc1,0%
21,CN(c1ccc(NC(=O)Nc2cc(C(F)(F)F)ccc2F)cc1)c1ccnc(Nc2ccc(S(N)(=O)=O)cc2)n1,100%
22,CN1CCN(Cc2ccc(NC(=O)Nc3ccc(N(C)c4ccnc(Nc5ccc(CS(C)(=O)=O)cc5)n4)cc3)cc2)CC1,100%
23,CCn1c(-c2nonc2N)nc2cncc(CNC3CCNCC3)c21,0%
24,CCn1c(-c2c(N)noc2C)nc2cnccc21,0%
25,CCn1c(-c2ccoc2)nc2cnccc21,0%

row,Structure (SMILES),MOTILITY REDUCTION/CYTOTOXICITY
1,CN(C(=O)c1ccc(-c2cc(-c3c[nH]nc3-c3ccccn3)ccn2)cc1)C1CCOCC1,0%
2,COc1ccc2cc(-c3nc(-c4ccccc4C(C)C)[nH]c3-c3ccncc3)ccc2c1,100%
3,NC(=O)Nc1sc(-c2ccc(F)cc2)cc1C(N)=O,33.4%
4,O=C(Nc1n[nH]c2nc(-c3ccccc3)c(Br)cc12)C1CC1,20%
5,Nc1n[nH]c2cnc(-c3ccccc3)cc12,0%
6,O=C(Nc1n[nH]c2cc(-c3ccoc3)ccc12)C1CC1,13.4%
7,CCCC(=O)Nc1n[nH]c2ncc(-c3cccc4ccccc34)cc12,0%
8,O=C(Nc1n[nH]c2nc(-c3ccccc3)ccc12)C1CC1,0%
9,O=C(Nc1n[nH]c2nc(-c3ccccc3O)ccc12)C1CC1,0%
10,O=C(Nc1n[nH]c2cc(-c3ccsc3)ccc12)C1CC1,0%
11,O=C(Nc1n[nH]c2cc(-c3cccc(F)c3)ccc12)C1CC1,0%
12,O=C(Nc1n[nH]c2nc(-c3nccs3)c(Br)cc12)C1CC1,20%
13,Cc1ccc(C)c(Oc2nccc(-c3c(-c4ccc(F)cc4)ncn3C3CCNCC3)n2)c1,26.7%
14,CC(=O)Nc1n[nH]c2ncc(-c3ccccc3)cc12,0%
15,CC(C)(C)c1ccc(-n2cnc3c(N)ncnc32)cc1,0%
16,Nc1ncnc2c1ncn2-c1cccc2ccccc12,0%
17,COc1ccc(-n2cnc3c(N)ncnc32)cc1,0%
18,O=C(Nc1n[nH]c2nc(-c3ccco3)c(Br)cc12)C1CCN(Cc2ccccc2)C1 (configuration not stated),33.4%
19,Cc1cc(-c2c(-c3ccc(F)cc3)ncn2CCCN2CCOCC2)nc(N)n1,0%
20,O=C(Nc1n[nH]c2cc(-c3cccs3)ccc12)C1CC1,0%
21,CCOc1nccc(-c2c(-c3ccc(F)cc3)ncn2C2CCNCC2)n1,0%
22,Nc1nccc(-c2c(-c3ccc(F)cc3)ncn2C2CCN(Cc3ccccc3)CC2)n1,0%
23,O=C1NC(=O)C(N2CCc3ccccc32)=C1c1cccc(Cl)c1,0%
24,COc1cccc(C2=C(Nc3cccc(C(=O)O)c3)C(=O)NC2=O)c1,0%
25,CN1C(=O)C(Nc2ccc(Cl)c(C(=O)O)c2)=C(c2ccc(Cl)cc2)C1=O,0%

row,Structure (SMILES),MOTILITY REDUCTION/CYTOTOXICITY
1,O=C1NC(=O)C(c2ccc(Cl)cc2)=C1Nc1cccc(O)c1,13.4%
2,O=C1NC(=O)C(c2ccccc2Cl)=C1Nc1ccccc1,0%
3,COc1cccc(C2=C(Nc3ccc(Cl)c(C(=O)O)c3)C(=O)NC2=O)c1,0%
4,CN1C(=O)C(Nc2cc(Cl)c(O)c(Cl)c2)=C(c2ccc(Cl)cc2)C1=O,0%
5,O=C1NC(=O)C(c2ccccc2)=C1Nc1cccc(O)c1,0%
6,O=C1NC(=O)C(c2ccccc2Cl)=C1Nc1cccc(C(=O)O)c1,0%
7,CSc1ccc(NC2=C(c3ccc(Cl)cc3)C(=O)NC2=O)cc1,0%
8,CCn1c(-c2ccccc2)nc2cnccc21,0%
9,Fc1ccc(Nc2nccc(-c3c(-c4ccc(Cl)cc4)nn4ncccc34)n2)cc1F,0%
10,FC(F)(F)c1cc(Br)cc(Nc2nccc(-c3cnn4ncccc34)n2)c1,46.7%
11,FC(F)(F)c1ccc(-c2nn3ncccc3c2-c2ccnc(Nc3cccc(C(F)(F)F)c3)n2)cc1,0%
12,CCn1c(-c2cccnc2O)nc2cnccc21,13.4%
13,CN1CCN(CCNc2nc3ccc(Oc4ccc(NC(=O)Nc5cc(C(F)(F)F)ccc5F)cc4)cc3[nH]2)CC1,0%
14,COc1cc2ncn(-c3cc(OCc4ccncc4Br)c(C(N)=O)s3)c2cc1OC,0%
15,Nc1ncnc2scc(-c3ccc(NC(=O)Cc4cc(F)ccc4F)cc3)c12.O=C(O)C(F)(F)F,40%
16,O=C(Nc1n[nH]c2nc(-c3nccs3)c(Br)cc12)C1CCCC1,20%
17,O=C(Nc1n[nH]c2nc(-c3cccs3)c(Br)cc12)C1CCCC1,0%
18,COc1ccccc1-c1ccc2c(NC(=O)C3CC3)n[nH]c2n1,0%
19,O=C(Nc1n[nH]c2cc(-c3ccco3)ccc12)C1CC1,0%
20,Cc1ccc(NC(=O)c2ccnc(N3CCCCC3)c2)cc1-c1ccc(C(=O)NCC2CC2)cc1,0%
21,Cc1c2ccc(N(C)c3ccnc(Nc4cccc(S(N)(=O)=O)c4)n3)cc2nn1Cc1ccccc1,0%
22,Cc1ccc(C(=O)NC2CCCC2)cc1-c1ccc(C(=O)NCC2CC2)cc1,20%
23,COc1ccc(NC(=O)c2ccoc2)cc1-c1ccc(C(=O)NCC2CC2)cc1,13.4%
24,O=C(NCC1CC1)c1ccc(-c2cc(C(=O)NC3CC3)ccc2F)cc1,0%
25,Cc1ccccc1COc1cc(-n2cnc3cc(Cl)ccc32)sc1C(N)=O,0%

row,Structure (SMILES),MOTILITY REDUCTION/CYTOTOXICITY
1,Fc1ccc(-c2nn3cccc(F)c3c2-c2ccncc2)cc1,0%
2,CN(C)CC(O)COc1ccc(Nc2nccc(-c3cnn4nc(N5CCOCC5)ccc34)n2)cc1 (configuration not stated),0%
3,CN(C)CCN(C)C(=O)c1cc(-c2ccncc2)c(-c2ccc(Cl)c(O)c2)o1,20%
4,CN(c1ccc2c(c1)nc(NCc1ccc(F)cc1)n2C)c1ccnc(Nc2ccc(CS(C)(=O)=O)cc2)n1,0%
5,COc1ccc(C)c(Nc2ccnc(Nc3ccc(-c4cnc[nH]4)cc3)n2)c1,0%
6,COc1cc(Nc2ncc3c(C)nc(-c4cc5ccccc5[nH]4)n3n2)cc(OC)c1OC,53.4%
7,Cc1csc(-c2nc(Nc3ccncc3)c3ccccc3n2)n1,33.4%
8,CN(c1ccc(NC(=O)Nc2cccc(Cl)c2)cc1)c1ccnc(N)n1,13.4%
9,FC(F)(F)c1ccc(/C=C/c2cncnc2Nc2ccc3[nH]c(Cc4ccccc4)nc3c2)cc1,100%
10,Cc1cccc(-c2nc(Nc3ccc4c(cnn4C)c3)c3ccccc3n2)n1,100%
11,Cc1cccc(-c2nc(Nc3ccc4ncsc4c3)c3ccccc3n2)n1,100%
12,Cc1cccc(-c2nc(Nc3ccncc3)c3sccc3n2)n1,46.7%
13,Cc1cccc(-c2nc(Nc3cccc(C(N)=O)c3)c3ccccc3n2)n1,46.7%
14,Clc1cccc(-c2nc(Nc3ccncc3)c3ccccc3n2)c1,0%
15,Cc1ccc(O)cc1Nc1ccnc2ccc(C(C)(C)C)cc12,100%
16,CCC(CC)(CC)n1cnc2c(N)ncnc21,0%
17,O=C(O)c1ccc(-c2nc(-c3ccc(F)cc3)c(-c3ccncc3)[nH]2)cc1,0%
18,COc1cccc(-n2cnc3c(N)ncnc32)c1,0%
19,CCCCCc1nc2c(N)ncnc2n1CCCCC,0%
20,Oc1ccc(-c2[nH]c(-c3ccccc3)nc2-c2ccncc2)cc1,0%
21,CCOC(=O)N1CCC(n2cnc(-c3ccc(F)cc3)c2-c2ccnc(N)n2)CC1,0%
22,Fc1ccc(-c2ncn(C3CCNCC3)c2-c2ccnc(Nc3ccccc3)n2)cc1,0%
